Assay [1] concerns the target T1, Nociceptin receptor (Mus musculus, UniProt P35377). The assay is described as follows: Antagonist activity at NOP receptor in Swiss mouse vas deferens by [35S]GTP-gamma-S binding assay. In kind it is functional, tissue-based. Particulars: read-out: pA2 (converted).
Assay [2] has as its target T2, Nociceptin receptor (Rattus norvegicus, UniProt P35370). Put plainly: Antagonist activity at NOP receptor in Sprague-Dawley rat vas deferens assessed as effect on electrically stimulated contractions. It is filed as functional, tissue-based. Particulars: read-out: pA2 (converted).
Assay [3] has as its target T3, Nociceptin receptor (Cavia porcellus, UniProt P47748). Put plainly: Antagonist activity at NOP receptor in Albino guinea pig ileum assessed as effect on electrically stimulated contractions. It is filed as functional, tissue-based. Conditions: read-out: pA2 (converted).
The target in assay [4] is Nociceptin receptor (Mus musculus) (UniProt P35377). The assay is described as follows: (§1) Agonist activity at NOP receptor in Swiss mouse vas deferens by [35S]GTP-gamma-S binding assay. It is filed as functional, tissue-based.
Chain of Nociceptin receptor (Mus musculus) (P35377 whole entry): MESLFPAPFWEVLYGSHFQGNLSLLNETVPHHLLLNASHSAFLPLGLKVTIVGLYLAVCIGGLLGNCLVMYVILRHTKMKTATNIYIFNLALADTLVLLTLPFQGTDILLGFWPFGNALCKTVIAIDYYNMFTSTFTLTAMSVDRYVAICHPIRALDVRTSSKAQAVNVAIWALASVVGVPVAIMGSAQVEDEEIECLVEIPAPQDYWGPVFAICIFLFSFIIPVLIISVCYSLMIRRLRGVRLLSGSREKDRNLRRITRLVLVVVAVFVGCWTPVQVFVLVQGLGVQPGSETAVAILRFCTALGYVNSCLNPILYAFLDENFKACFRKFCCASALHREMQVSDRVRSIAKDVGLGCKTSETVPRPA
The target in assay [5] is T1, Nociceptin receptor. The assay is described as §1. In kind it is functional, tissue-based.
For assay [6], the target named is T3, Nociceptin receptor. The assay is described as follows: (§2) Agonist activity at NOP receptor in Albino guinea pig ileum assessed as effect on electrically stimulated contractions. In kind it is functional, tissue-based.
Assay [7] deals with Nociceptin receptor (Cavia porcellus) (UniProt P47748). The description is as §2. It is filed as functional, tissue-based.
Chain of Nociceptin receptor (Cavia porcellus) (P47748 whole entry): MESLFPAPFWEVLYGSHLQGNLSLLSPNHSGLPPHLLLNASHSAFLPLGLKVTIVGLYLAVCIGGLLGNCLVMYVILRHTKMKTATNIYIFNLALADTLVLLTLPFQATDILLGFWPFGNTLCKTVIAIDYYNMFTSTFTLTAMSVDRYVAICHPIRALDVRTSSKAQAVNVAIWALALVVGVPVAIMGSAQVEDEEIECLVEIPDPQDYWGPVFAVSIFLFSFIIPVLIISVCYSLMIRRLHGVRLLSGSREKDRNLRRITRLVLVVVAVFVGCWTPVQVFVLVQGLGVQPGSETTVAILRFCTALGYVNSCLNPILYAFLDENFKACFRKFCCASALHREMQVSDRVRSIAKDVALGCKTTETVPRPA
For assay [8], the target named is T2, Nociceptin receptor. Put plainly: Agonist activity at NOP receptor in Sprague-Dawley rat vas deferens assessed as effect on electrically stimulated contractions. It is filed as functional, tissue-based.
Assay [9] deals with Delta-type opioid receptor (Homo sapiens, UniProt P41143). Put plainly: Displacement of [3H]diprenorphine from human recombinant delta opioid receptor expressed in CHO cells. It is filed as cell-based.
Chain of Delta-type opioid receptor (P41143 whole entry): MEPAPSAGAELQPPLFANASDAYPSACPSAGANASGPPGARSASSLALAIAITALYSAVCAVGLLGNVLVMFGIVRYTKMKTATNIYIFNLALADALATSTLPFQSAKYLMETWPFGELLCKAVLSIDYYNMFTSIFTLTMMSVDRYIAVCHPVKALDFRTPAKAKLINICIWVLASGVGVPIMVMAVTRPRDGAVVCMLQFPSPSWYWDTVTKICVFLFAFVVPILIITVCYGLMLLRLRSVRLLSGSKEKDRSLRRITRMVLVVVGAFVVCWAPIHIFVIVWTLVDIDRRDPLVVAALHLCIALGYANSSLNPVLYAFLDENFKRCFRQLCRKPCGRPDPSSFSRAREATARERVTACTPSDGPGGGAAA
The target of another assay is Mu-type opioid receptor (Homo sapiens, UniProt P35372). Put plainly: Displacement of [3H]diprenorphine from human recombinant mu opioid receptor expressed in CHO cells. It is filed as cell-based.
Chain of Mu-type opioid receptor (P35372 whole entry): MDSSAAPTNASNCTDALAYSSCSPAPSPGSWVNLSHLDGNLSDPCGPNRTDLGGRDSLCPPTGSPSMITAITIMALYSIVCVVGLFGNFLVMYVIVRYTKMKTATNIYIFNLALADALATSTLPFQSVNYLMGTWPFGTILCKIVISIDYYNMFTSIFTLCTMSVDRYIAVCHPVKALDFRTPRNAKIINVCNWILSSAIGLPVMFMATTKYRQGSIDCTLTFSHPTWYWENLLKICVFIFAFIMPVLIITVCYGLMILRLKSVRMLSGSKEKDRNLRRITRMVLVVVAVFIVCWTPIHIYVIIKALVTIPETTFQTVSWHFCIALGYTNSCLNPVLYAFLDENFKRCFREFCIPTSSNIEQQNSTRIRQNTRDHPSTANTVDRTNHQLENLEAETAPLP

*1 amine or outer side, *2 acyl side, *3 side chain or, on linkers, in order; H or OH if unused. Where a SMILES comes first, the peptide text is derived from it. [ ]: non-standard residue; d: D form. X1 = N[C@@H](Cc1ccccc1)CN(CC(=O)[*:2])[*:1]; Phe(4-F) = N[C@@H](Cc1ccc(F)cc1)C(=O)O; Aib = CC(C)(N)C(=O)O Where only a bound is given, the exact number is not on record here.

T2 sequence (P35370 whole entry): as the sequence (P35377 whole entry) above, with F9Y, A335S counted along it
T1 sequence (P35377 whole entry): as the sequence (P35377 whole entry) above
T3 sequence (P47748 whole entry): as the sequence (P47748 whole entry) above

`C[C@H](NC(=O)[C@H](CO)NC(=O)[C@H](CCCCN)NC(=O)[C@H](CCCNC(=N)N)NC(=O)C(C)(C)NC(=O)CNC(=O)[C@@H](NC(=O)[C@H](Cc1ccc(F)cc1)NC(=O)CNC(=O)CNC[C@@H](N)Cc1ccccc1)[C@@H](C)O)C(=O)N[C@@H](CCCNC(=N)N)C(=O)N[C@@H](CCCCN)C(=O)N[C@@H](CCCNC(=N)N)C(=O)N[C@@H](CCCCN)C(=O)N[C@@H](CC(N)=O)C(=O)N[C@@H](CCC(N)=O)C(N)=O` (H-[X1]G[Phe(4-F)]TG[Aib]RKSARKRKNQ-NH2): the Kb was 0.794 nM on Nociceptin receptor [1], 0.603 nM on Nociceptin receptor [2] and 0.316 nM at Nociceptin receptor [3].

On to `C[C@H](NC(=O)[C@H](CO)NC(=O)[C@H](CCCCN)NC(=O)[C@H](CCCNC(=N)N)NC(=O)C(C)(C)NC(=O)CNC(=O)[C@@H](NC(=O)[C@H](Cc1ccc(F)cc1)NC(=O)CNC(=O)CNC(=O)[C@@H](N)Cc1ccccc1)[C@@H](C)O)C(=O)N[C@@H](CCCNC(=N)N)C(=O)N[C@@H](CCCCN)C(=O)N[C@@H](CCCNC(=N)N)C(=O)N[C@@H](CCCCN)C(=O)N[C@@H](CC(N)=O)C(=O)N[C@@H](CCC(N)=O)C(N)=O`, for which the Emax in assay [4] amounted to 84%; in [7], 32%. Moreover, the EC50 on Nociceptin receptor [5] was 0.575 nM; on Nociceptin receptor [6] it was 0.676 nM; on Nociceptin receptor [8], 4.57 nM.

`C[C@H](NC(=O)[C@H](CO)NC(=O)[C@H](CCCCN)NC(=O)[C@H](CCCNC(=N)N)NC(=O)C(C)(C)NC(=O)CNC(=O)[C@@H](NC(=O)[C@H](Cc1ccccc1)NC(=O)CNC(=O)CNC(=O)CNCc1ccccc1)[C@@H](C)O)C(=O)N[C@@H](CCCNC(=N)N)C(=O)N[C@@H](CCCCN)C(=O)N[C@@H](CCCNC(=N)N)C(=O)N[C@@H](CCCCN)C(=O)N[C@@H](CC(N)=O)C(=O)N[C@@H](CCC(N)=O)C(N)=O`: the Kb on Nociceptin receptor [1] was 34.7 nM; at Nociceptin receptor [2] it was 87.1 nM; at Nociceptin receptor [3], 46.8 nM. In addition, the Ki (in [9]; at Mu-type opioid receptor) was more than 10000 nM each time.

As for `CC(C)C[C@H](NC(=O)[C@H](CCCCN)NC(=O)[C@H](CCCN=C(N)N)NC(=O)[C@H](C)NC(=O)[C@H](CO)NC(=O)[C@H](CCCCN)NC(=O)[C@H](CCCN=C(N)N)NC(=O)[C@H](C)NC(=O)CNC(=O)[C@@H](NC(=O)[C@H](Cc1ccccc1)NC(=O)CNC(=O)CNC(=O)[C@@H](N)Cc1ccccc1)[C@@H](C)O)C(=O)N[C@@H](C)C(=O)N[C@@H](CC(N)=O)C(=O)N[C@@H](CCC(N)=O)C(=O)O` [NOCICEPTIN], the figures for the EC50 on Nociceptin receptor [5] and at Nociceptin receptor [6] were 35.5 nM and 8.91 nM, respectively.

For `CC(C)C[C@H](NC(=O)[C@H](CCCCN)NC(=O)[C@H](CCCNC(=N)N)NC(=O)[C@H](C)NC(=O)[C@H](CO)NC(=O)[C@H](CCCCN)NC(=O)[C@H](CCCNC(=N)N)NC(=O)[C@H](C)NC(=O)CNC(=O)[C@@H](NC(=O)[C@H](Cc1ccccc1)NC(=O)CNC(=O)CNC(=O)[C@@H](N)Cc1ccccc1)[C@@H](C)O)C(=O)N[C@@H](C)C(=O)N[C@@H](CC(N)=O)C(=O)N[C@@H](CCC(N)=O)C(=O)O`, the Emax amounted to 87% in assay [4] and 45% in assay [7].

The values above are taken from ChEMBL document CHEMBL1148695, “Synthesis and biological activity of nociceptin/orphanin FQ analogues substituted in position 7 or 11 with Calpha,alpha-dialkylated amino acids” (Bioorg Med Chem, 2007).
